Active and inactive are the calls of the source. The rule behind the calls is not given here.

Here are results for one molecule from ChEMBL document CHEMBL2046420, “Edible Myrciaria vexator fruits: bioactive phenolics for potential COPD therapy” (Bioorg Med Chem, 2012).

Series [1] deals with SAE. Briefly: Inhibition of CPE-induced MMP1 mRNA expression in human SAE cells after 24 hrs by quantitative RT-PCR analysis. The series is classed as functional, cell-based.
A short description of series [2]: Inhibition of CPE-induced MMP1 mRNA expression in human SAE cells after 24 hrs by quantitative RT-PCR analysis relative to control. It counts as functional.
The subject of series [3] is SAE. Briefly: Inhibition of MMP1 mRNA expression in human SAE cells at 1 to 10 ug/ml after 24 hrs by quantitative RT-PCR analysis. It counts as functional, cell-based.
Series [4] in a line: Cytotoxicity against human SAE cells at 1 to 10 ug/ml. It counts as cell-based.

`O=c1oc2c(O)c(O)cc3c(=O)oc4c(O)c(O)cc1c4c23` [ELLAGIC ACID]: in the series on SAE [1], the inhibition entry is “Dose-dependent effect”. Moreover, in series [2], the “fold change (FC)” value is listed as 6. In the series with SAE [3], the inhibition result is “Active”. Also, in series [4], the Activity entry is “Non-toxic”.
